Reference: patent US20260250320A1, “LIPIDATED PEPTIDE INHIBITORS OF INTERLEUKIN-23 RECEPTOR” (Janssen Pharmaceutica NV, priority 2023, published 2026)
pIC50: −log10 of the molar value. *1 amine or outer side, *2 acyl side, *3 side chain or, on linkers, in order; H or OH if unused. Where a SMILES comes first, the peptide text is derived from it. Bridges are numbered along the chain shown (N, C = ends). Side-chain parts run from the residue outwards. [ ]: non-standard residue; d: D form. The star is where a group is joined. X32 = O=C(O)CCCCCCCCCCCCCCCCC(=O)N[C@@H](CCC(=O)NCCOCCOCCOCCOCCOCCOCCOCCOCCOCCOCCOCCCOCCC(=O)*)C(=O)O; Trp(7-Me) = Cc1cccc2c(C[C@H](N)C(=O)O)c[nH]c12; C18 diacid = O=C(O)CCCCCCCCCCCCCCCCC(=O)*; γGlu = O=C(O)[C@H](CCC(=O)[*:2])N[*:1]; 2Nal = N[C@@H](Cc1ccc2ccccc2c1)C(=O)O; AEF = NCCOc1ccc(C[C@H](N)C(=O)O)cc1; X2 = C[N+](C)(C)C[C@@H](CC(=O)O)N*; 3Pal = N[C@@H](Cc1cccnc1)C(=O)O; Pen = CC(C)(S)[C@H](N)C(=O)O; Suc = O=C(CCC(=O)[*:2])[*:1]; Thp = NC1(C(=O)O)CCOCC1; AEEA = NCCOCCOCC(=O)O; Sar = CNCC(=O)O

Assays:
[1] = target: T1, IL-23R (Homo sapiens, UniProt Q5VWK5); test: IL23R Reporter Assay; type: cell-based; settings: HEK293 cells containing IL-23R, IL-12Rβ1 and STAT-inducible firefly luciferase reporter; 10 ng/mL IL-23 (EC90); 5 h
T1 construct: HEK293 cells containing IL-23R, IL-12Rβ1 and a firefly luciferase reporter gene driven by a STAT-inducible promoter (Promega); host or cells: HEK293
T1 sequence (Q5VWK5 24-629): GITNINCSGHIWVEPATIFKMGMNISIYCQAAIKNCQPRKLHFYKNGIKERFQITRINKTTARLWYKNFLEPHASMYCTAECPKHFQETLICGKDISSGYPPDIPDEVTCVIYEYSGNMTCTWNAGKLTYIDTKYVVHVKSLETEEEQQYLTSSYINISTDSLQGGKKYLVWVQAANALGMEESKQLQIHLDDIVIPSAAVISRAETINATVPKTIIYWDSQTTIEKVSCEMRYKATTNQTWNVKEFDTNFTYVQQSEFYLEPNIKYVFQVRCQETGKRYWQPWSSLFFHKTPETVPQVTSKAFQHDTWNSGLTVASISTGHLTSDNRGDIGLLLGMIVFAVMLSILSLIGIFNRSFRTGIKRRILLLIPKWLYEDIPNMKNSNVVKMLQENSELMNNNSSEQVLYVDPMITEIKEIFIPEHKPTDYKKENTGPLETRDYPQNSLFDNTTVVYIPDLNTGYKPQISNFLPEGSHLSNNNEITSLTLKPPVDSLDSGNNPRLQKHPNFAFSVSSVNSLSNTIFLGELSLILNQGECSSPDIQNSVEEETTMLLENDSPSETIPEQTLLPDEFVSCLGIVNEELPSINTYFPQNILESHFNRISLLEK
Method in brief: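 HEK293 cells carrying IL-23R, IL-12Rβ1 and a STAT-driven firefly luciferase reporter (4000 cells/well) received compound, then 10 ng/mL IL-23 solution (EC90), and were incubated for 5 h at 37° C. BioGlo luminescence was normalised to IL-23 alone (0%) and 30 μM control inhibitor (100%). IC50 came from a 4-parameter Hill fit.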

[2] = tested on: IL-23-stimulated phosphorylated STAT3 in peripheral blood mononuclear cells (PBMCs); test: PBMC pSTAT3 Assay; type: cell-based; settings: PBMCs from healthy donors; 30 min preincubation with peptide; IL-23 5 ng/mL for 30 min; phospho-STAT3 by MSD
Method: Cryopreserved peripheral blood mononuclear cells (PBMCs) from healthy donors were thawed and washed twice in ImmunoCult-XF T cell expansion medium (XF-TCEM) supplemented with CTL anti-aggregate wash. The cells were counted, resuspended at 2-6×10^5 cells per mL XF-TCEM supplemented with penicillin/streptomycin and 100 ng/mL […] (BioLegend, 579404), and cultured in tissue culture flasks coated with anti-CD3 (eBioscience, 16-0037-85 or BD Pharmingen, 555329) at 37° C. in 5% CO2. On day 4 of culture, PBMCs were collected, washed twice in RPMI-1640 supplemented with 0.1% BSA (RPMI-BSA), and incubated in RPMI-BSA in upright tissue culture flasks for ~4 hours at 37° C. in 5% CO2. Following this 'starvation,' a total of 6×10^4 cells in 30 μL RPMI-BSA was transferred into each well of a 384-well plate pre-spotted with peptide or DMSO. The cells were incubated for 30 minutes prior to the addition of […] at a final concentration of 5 ng/mL. The cells were stimulated with cytokine for 30 minutes at 37° C. in 5% CO2, transferred onto ice for 10 minutes, and lysed. Cell lysates were stored at -80° C. until phosphorylated STAT3 was measured using the phospho-STAT panel kit (Meso Scale Discovery, […]). Results are provided below. • A: IC50<0.5 nM; • B: 0.5 nM≤IC50<5 nM; • C: 5 nM≤IC50; • ND: Not determined

Row | pIC50 [1] | Structure (SMILES) | pIC50 [2]
1 | > 7.30 | CC(=O)NCCCC[C@@H]1NC(=O)[C@H](Cc2c[nH]c3c(C)cccc23)NC(=O)[C@H]([C@@H](C)O)NC(=O)[C@H](CC(N)=O)NC(=O)[C@@H](NC(=O)C(CCCNC(=N)N)CC(=O)COCCOCCNC(=O)COCCOCCNC(=O)CC[C@H](NC(=O)CCCCCCCCCCCCCCCCC(=O)O)C(=O)O)C(C)(C)SSC(C)(C)[C@@H](C(=O)N[C@@H](Cc2ccc(OCCN)cc2)C(=O)N[C@@H](Cc2ccc3ccccc3c2)C(=O)NC2(C(=O)N[C@@H](CCC(=O)O)C(=O)N[C@@H](CC(N)=O)C(=O)N[C@@H](Cc3cccnc3)C(=O)N(C)[C@@H](CCCCNC(=O)CCC(=O)N[C@H](CC(=O)O)C[N+](C)(C)C)C(N)=O)CCOCC2)NC1=O (some centres unmarked) [compound 43, HOC18gEPEG2PEG2CO-r-Pen(3)-N-T-7MeW-K(Ac)-Pen(3)-AEF-2Nal-THP-E-N-3Pya-NMeK(d)-CONH2] | > 9.30
2 | 6.30 to 7.30 | CC(=O)NCCCC[C@@H]1NC(=O)[C@H](Cc2c[nH]c3c(C)cccc23)NC(=O)[C@H]([C@@H](C)O)NC(=O)[C@H](CCCCNC(=O)CCC(=O)N[C@H](CC(=O)O)C[N+](C)(C)C)NC(=O)[C@@H](NC(=O)[C@@H](CCCNC(=N)N)NC(C)=O)C(C)(C)SSC(C)(C)[C@@H](C(=O)N[C@@H](Cc2ccc(OCCN)cc2)C(=O)N[C@@H](Cc2ccc3ccccc3c2)C(=O)NC2(C(=O)N[C@@H](CCC(=O)O)C(=O)N[C@@H](CC(N)=O)C(=O)N[C@@H](Cc3cccnc3)C(=O)N(C)CC(=O)N[C@@H](CCCCNC(=O)COCCOCCNC(=O)COCCOCCNC(=O)CC[C@H](NC(=O)CCCCCCCCCCCCCCCCC(=O)O)C(=O)O)C(N)=O)CCOCC2)NC1=O [compound 53, MeCO-r-Pen(3)-K(d)-T-7MeW-K(Ac)-Pen(3)-AEF-2Nal-THP-E-N-3Pya-Sar-K(PEG2PEG2gEC18OH)-CONH2] (Ac-[dR][Pen]K([Suc-X2])T[Trp(7-Me)]K(Ac)[Pen][AEF][2Nal][Thp]EN[3Pal][Sar]K([AEEA-AEEA-γGlu-C18 diacid])-NH2; disulfide 2-7) | > 9.30
3 | > 7.30 | CC(=O)NCCCC[C@@H]1NC(=O)[C@H](Cc2c[nH]c3c(C)cccc23)NC(=O)[C@H]([C@@H](C)O)NC(=O)[C@H](CC(N)=O)NC(=O)[C@@H](NC(=O)[C@@H](CCCNC(=N)N)NC(C)=O)C(C)(C)SSC(C)(C)[C@@H](C(=O)N[C@@H](Cc2ccc(OCCN)cc2)C(=O)N[C@@H](Cc2ccc3ccccc3c2)C(=O)NC2(C(=O)N[C@@H](CCC(=O)O)C(=O)N[C@@H](CC(N)=O)C(=O)N[C@@H](Cc3cccnc3)C(=O)N(C)CC(=O)N[C@@H](CCCCNC(=O)CCOCCCOCCOCCOCCOCCOCCOCCOCCOCCOCCOCCOCCNC(=O)CC[C@H](NC(=O)CCCCCCCCCCCCCCCCC(=O)O)C(=O)O)C(N)=O)CCOCC2)NC1=O [compound 133, MeCO-r-Pen(3)-N-T-7MeW-K(Ac)-Pen(3)-AEF-2Nal-THP-E-N-3Pya-Sar-K(PEG12gEC18OH)-CONH2] (Ac-[dR][Pen]NT[Trp(7-Me)]K(Ac)[Pen][AEF][2Nal][Thp]EN[3Pal][Sar]K(X32)-NH2; disulfide 2-7) | > 9.30
4 | > 7.30 | CC(=O)NCCCC[C@@H]1NC(=O)[C@H](Cc2c[nH]c3c(C)cccc23)NC(=O)[C@H]([C@@H](C)O)NC(=O)[C@H](CCCCNC(=O)COCCOCCNC(=O)COCCOCCNC(=O)CC[C@H](NC(=O)CCCCCCCCCCCCCCCCC(=O)O)C(=O)O)NC(=O)[C@@H](NC(=O)[C@@H](CCCNC(=N)N)NC(C)=O)C(C)(C)SSC(C)(C)[C@@H](C(=O)N[C@@H](Cc2ccc(OCCN)cc2)C(=O)N[C@@H](Cc2ccc3ccccc3c2)C(=O)NC2(C(=O)N[C@@H](CCCCNC(=O)CCC(=O)N[C@H](CC(=O)O)C[N+](C)(C)C)C(=O)N[C@@H](CC(N)=O)C(=O)N[C@@H](Cc3cccnc3)C(=O)N(C)CC(N)=O)CCOCC2)NC1=O [compound 12, MeCO-r-Pen(3)-K(PEG2PEG2gEC18OH)-T-7MeW-K(Ac)-Pen(3)-AEF-2Nal-THP-K(d)-N-3Pya-Sar-CONH2] (Ac-[dR][Pen]K([AEEA-AEEA-γGlu-C18 diacid])T[Trp(7-Me)]K(Ac)[Pen][AEF][2Nal][Thp]K([Suc-X2])N[3Pal][Sar]-NH2; disulfide 2-7) | 8.30 to 9.30
